Patent US20190367516A1 (Bayer Pharma Aktiengesellschaft, priority 2015, published 2019)
Read-outs that look alike come from different tables or passages of the source.

Target: T1, human M2 receptor (Homo sapiens, UniProt P08172)
T1 sequence (P08172 1-466): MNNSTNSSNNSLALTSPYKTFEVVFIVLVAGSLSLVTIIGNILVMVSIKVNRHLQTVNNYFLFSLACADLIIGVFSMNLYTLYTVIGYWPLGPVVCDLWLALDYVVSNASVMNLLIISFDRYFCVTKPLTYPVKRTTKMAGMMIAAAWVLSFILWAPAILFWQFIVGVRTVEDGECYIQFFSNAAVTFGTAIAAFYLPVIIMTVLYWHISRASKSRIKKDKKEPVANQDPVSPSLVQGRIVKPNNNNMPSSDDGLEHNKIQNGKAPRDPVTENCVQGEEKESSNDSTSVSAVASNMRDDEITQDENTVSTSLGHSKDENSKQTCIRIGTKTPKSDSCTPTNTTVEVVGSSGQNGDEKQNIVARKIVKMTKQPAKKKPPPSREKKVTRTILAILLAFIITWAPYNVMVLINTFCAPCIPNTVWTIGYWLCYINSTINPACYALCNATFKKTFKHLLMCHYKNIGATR
Details: for Emax: read-out: Efficiency, boosting of the acetylcholine effect at EC20 acetylcholine concentration; for Efficiency: boosting of the acetylcholine effect at EC20 acetylcholine concentration

[1] = Receptor activity EC50, M2-GIRK1/4 activation test, acetylcholine at EC20, allosteric potency, in some cases mean values from two or more determinations
[2] = Receptor activity EC50, allosteric potency at EC20 acetylcholine, M2-GIRK1/4 reporter cells, in some cases mean of two or more determinations

| SMILES | EC50 [1] | EC50 [2] | Emax (M2-GIRK1/4 reporter cells) | Efficiency (M2-GIRK1/4 reporter cells) |
| --- | --- | --- | --- | --- |
| CC(C)(NC(=O)c1cn(-c2c(F)cc(F)cc2F)c2nc(N3C[C@@H](O)[C@H](O)C3)ccc2c1=O)C1CC1 [Example 379, N-(2-Cyclopropylpropan-2-yl)-7-[(3R,4R)-3,4-dihydroxypyrrolidin-1-yl]-4-oxo-1-(2,4,6-trifluorophenyl)-1,4-dihydro-1,8-naphthyridine-3-carboxamide] | 35 nM |  |  |  |
| CC(NC(=O)c1cn(-c2ccc(F)cc2F)c2nc(N(C)CC(F)F)ccc2c1=O)C(F)(F)F (racemic) [Example 113, rac-7-[(2,2-Difluoroethyl)(methyl)amino]-1-(2,4-difluorophenyl)-4-oxo-N-[1,1,1-trifluoropropan-2-yl]-1,4-dihydro-1,8-naphthyridine-3-carboxamide] | 141 nM |  |  |  |
| CC[C@H](NC(=O)c1cn(-c2c(F)cc(F)cc2F)c2nc(N3C[C@@H](NC(C)=O)CC3=O)ccc2c1=O)C(F)(F)F [Example 517, 7-[(4S)-4-Acetamido-2-oxopyrrolidin-1-yl]-4-oxo-N-[(2S)-1,1,1-trifluorobutan-2-yl]-1-(2,4,6-trifluorophenyl)-1,4-dihydro-1,8-naphthyridine-3-carboxamide] |  | 85 nM | 88.5% |  |
| CC(C)(C)[C@H](NC(=O)c1cn(-c2c(F)cc(F)cc2F)c2nc(N3CCNC3=O)ccc2c1=O)C(F)(F)F [Example 359, 4-Oxo-7-(2-oxoimidazolidin-1-yl)-N-[(2S)-1,1,1-trifluoro-3,3-dimethylbutan-2-yl]-1-(2,4,6-trifluorophenyl)-1,4-dihydro-1,8-naphthyridine-3-carboxamide] | 13 nM |  |  |  |
| C[C@@H]1C[C@](C)(O)CN1c1ccc2c(=O)c(C(=O)N[C@@H](C)C(F)(F)F)cn(-c3c(F)cc(F)cc3Cl)c2n1 [Example 390, 1-(2-Chloro-4,6-difluorophenyl)-7-[(2R,4S)-4-hydroxy-2,4-dimethylpyrrolidin-1-yl]-4-oxo-N-[(2S)-1,1,1-trifluoropropan-2-yl]-1,4-dihydro-1,8-naphthyridine-3-carboxamide] | 14 nM |  |  |  |
| O=C(N[C@@H](C1CC1)C(F)(F)F)c1cn(-c2c(F)cc(F)cc2F)c2nc(N3CCC(F)(CO)CC3)ccc2c1=O [Example 461, N-[(1 S)-1-Cyclopropyl-2,2,2-trifluoroethyl]-7-[4-fluoro-4-(hydroxymethyl)piperidin-1-yl]-4-oxo-1-(2,4,6-trifluorophenyl)-1,4-dihydro-1,8-naphthyridine-3-carboxamide] |  | 39 nM | 89% |  |
| O=C(N[C@@H](C1CC1)C(F)(F)F)c1cn(-c2c(F)cc(F)cc2Cl)c2nc(N3C[C@@H](O)[C@H](O)C3)ccc2c1=O (single isomer, unassigned) [Example 547] |  | 120 nM | 90% |  |
| CC(CC(F)(F)F)NC(=O)c1cn(-c2ccc(F)cc2F)c2nc(N(C)C)ccc2c1=O (racemic) [Example 46, rac-1-(2,4-Difluorophenyl)-7-(dimethylamino)-4-oxo-N-[4,4,4-trifluorobutan-2-yl]-1,4-dihydro-1,8-naphthyridine-3-carboxamide] | 127 nM |  |  |  |
| CC(NC(=O)c1cn(-c2c(F)cc(F)cc2F)c2nc(N3C[C@@H](O)CC3=O)ccc2c1=O)C(F)(F)C(F)(F)F (single isomer, unassigned) [Example 531] |  | 9 nM |  | 97.0% |
| O=C(N[C@@H](C1CC1)C(F)(F)F)c1cn(-c2c(F)cccc2Cl)c2nc(N3C[C@@H](O)[C@H](O)C3)ccc2c1=O [Example 347, 1-(2-Chloro-6-fluorophenyl)-N-[(1 S)-1-cyclopropyl-2,2,2-trifluoroethyl]-7-[(3R,4R)-3,4-dihydroxypyrrolidin-1-yl]-4-oxo-1,4-dihydro-1,8-naphthyridine-3-carboxamide] | 34 nM |  |  |  |
| CC1(NC(=O)c2cn(-c3c(F)cc(F)cc3F)c3nc(N4CCNC4=O)ccc3c2=O)CC(F)(F)C1 [Example 656, N-(3,3-Difluoro-1-methylcyclobutyl)-4-oxo-7-(2-oxoimidazolidin-1-yl)-1-(2,4,6-trifluorophenyl)-1,4-dihydro-1,8-naphthyridine-3-carboxamide] |  | 100 nM | 91.5% |  |
| NC(=O)N1CCN(c2ccc3c(=O)c(C(=O)NC45CC6CC(CC(C6)C4)C5)cn(-c4ccc(F)cc4F)c3n2)CC1 [Example 12, 7-(4-Carbamoylpiperazin-1-yl)-1-(2,4-difluorophenyl)-4-oxo-N-(tricyclo[3.3.1.1^3,7]dec-1-yl)-1,4-dihydro-1,8-naphthyridine-3-carboxamide] | 64 nM |  |  |  |
| CC(NC(=O)c1cn(-c2c(F)cc(F)cc2F)c2nc(N3C[C@@H](O)CC3=O)ccc2c1=O)(C1CC1)C(F)(F)F (single isomer, unassigned) [Example 509] |  | 7 nM | 88% |  |
| O=C(NC(C1CCC1)C(F)(F)F)c1cn(-c2c(F)cc(F)cc2F)c2nc(N3C[C@@H](O)CC3=O)ccc2c1=O (mixture of isomers) [Example 505, N-[1-Cyclobutyl-2,2,2-trifluoroethyl]-7-[(4S)-4-hydroxy-2-oxopyrrolidin-1-yl]-4-oxo-1-(2,4,6-trifluorophenyl)-1,4-dihydro-1,8-naphthyridine-3-carboxamide] |  | 6 nM | 100% |  |
| O=C(NC12CC3CC(F)(CC(F)(C3)C1)C2)c1cn(-c2ccc(F)cc2F)c2nc(NCC(F)(F)F)ccc2c1=O [Example 92, 1-(2,4-Difluorophenyl)-N-(3,5-difluorotricyclo[3.3.1.1^3,7]dec-1-yl)-4-oxo-7-[(2,2,2-trifluoroethyl)amino]-1,4-dihydro-1,8-naphthyridine-3-carboxamide] | 174 nM |  |  |  |
| O=C(N[C@@H](C1CC1)C(F)(F)F)c1cn(-c2c(F)cc(F)cc2F)c2nc(N3CC4(CC4)NC3=O)ccc2c1=O [Example 450, N-[(1 S)-1-Cyclopropyl-2,2,2-trifluoroethyl]-4-oxo-7-(5-oxo-4,6-diazaspiro[2.4]hept-6-yl)-1-(2,4,6-trifluorophenyl)-1,4-dihydro-1,8-naphthyridine-3-carboxamide] |  | 19 nM | 78.5% |  |
| CC[C@@H](NC(=O)c1cn(-c2ccc(F)cc2F)c2nc(N3C[C@@H](C(=O)OC)OC3=O)ccc2c1=O)C(F)(F)F [Example 257, Methyl (5S)-3-[8-(2,4-difluorophenyl)-5-oxo-6-{[(2R)-1,1,1-trifluorobutan-2-yl]carbamoyl}-5,8-dihydro-1,8-naphthyridin-2-yl]-2-oxo-1,3-oxazolidine-5-carboxylate] | 138 nM |  |  |  |
| O=C(NC12CC(C1)C2)c1cn(-c2c(F)cc(F)cc2F)c2nc(N3CC(O)C4(CC4)C3)ccc2c1=O (racemic) [Example 628, N-(Bicyclo[1.1.1]pent-1-yl)-7-[7-hydroxy-5-azaspiro[2.4]hept-5-yl]-4-oxo-1-(2,4,6-trifluorophenyl)-1,4-dihydro-1,8-naphthyridine-3-carboxamide] |  |  |  | 89.5% |
| CC[C@@H](NC(=O)c1cn(-c2ccc(F)cc2F)c2nc(N3CCC(C)(O)C3=O)ccc2c1=O)C(F)(F)F (single isomer, unassigned) [Example 196] | 137 nM |  |  |  |
| O=C(NC(C(F)(F)F)C(F)(F)F)c1cn(-c2c(F)cc(F)cc2F)c2nc(N3C[C@@H](O)CC3=O)ccc2c1=O [Example 555, N-(1,1,1,3,3,3-Hexafluoropropan-2-yl)-7-[(4S)-4-hydroxy-2-oxopyrrolidin-1-yl]-4-oxo-1-(2,4,6-trifluorophenyl)-1,4-dihydro-1,8-naphthyridine-3-carboxamide] |  | 10 nM | 100% |  |
| CC(C)[C@@H](C)NC(=O)c1cn(-c2c(F)cc(F)cc2F)c2nc(N3C[C@@H](O)[C@H](O)C3)ccc2c1=O [Example 483, 7-[(3R,4R)-3,4-Dihydroxypyrrolidin-1-yl]-N-[(2R)-3-methylbutan-2-yl]-4-oxo-1-(2,4,6-trifluorophenyl)-1,4-dihydro-1,8-naphthyridine-3-carboxamide] |  | 54 nM | 92.5% |  |
| O=C(NC1(C(F)(F)F)CCCC1)c1cn(-c2ccc(F)cc2F)c2nc(NCC(F)(F)F)ccc2c1=O [Example 96, 1-(2,4-Difluorophenyl)-4-oxo-7-[(2,2,2-trifluoroethyl)amino]-N-[1-(trifluoromethyl)cyclopentyl]-1,4-dihydro-1,8-naphthyridine-3-carboxamide] | 134 nM |  |  |  |
| CC(C)CC(NC(=O)c1cn(-c2ccc(F)cc2F)c2nc(NCCO)ccc2c1=O)C(F)(F)F (stereo not drawn) [Example 80, 1-(2,4-Difluorophenyl)-7-[(2-hydroxyethyl)amino]-4-oxo-N-[1,1,1-trifluoro-4-methylpentan-2-yl]-1,4-dihydro-1,8-naphthyridine-3-carboxamide] | 73 nM |  |  |  |
| O=C(NC12CC3CC(CC(C3)C1)C2)c1cn(-c2ccc(F)cc2F)c2nc(N3CCC(F)(F)C3)ccc2c1=O [Example 73, 1-(2,4-Difluorophenyl)-7-(3,3-difluoropyrrolidin-1-yl)-4-oxo-N-(tricyclo[3.3.1.1^3,7]dec-1-yl)-1,4-dihydro-1,8-naphthyridine-3-carboxamide] | 73 nM |  |  |  |
| CCC(NC(=O)c1cn(-c2ccc(F)cc2F)c2nc(N3C[C@@H](O)CC3=O)ccc2c1=O)C(F)(F)C(F)(F)F (single isomer, unassigned) [Example 558] |  | 22 nM |  | 100.0% |
